# Legend:
# [1] = biological target: T1, lyso-PAF: acetyl-CoA acetyltransferase (Rattus norvegicus, UniProt P0C1Q3); assay: Lyso-PAF: Acetyl-CoA Acetyltransferase [Synthesis of Platelet-Activating Factor (PAF)] in a lysate of rat pleural neutrophils; assay type: biochemical, rat (male Harlan Sprague-Dawley); settings: lysate of activated rat pleural neutrophils, pH 6.9, 37° C., 10 min; read-out: Enzymes IC50 PAF
# T1 construct: measured in a lysate of rat pleural neutrophils; endogenous in cells
# T1 sequence (P0C1Q3 1-544): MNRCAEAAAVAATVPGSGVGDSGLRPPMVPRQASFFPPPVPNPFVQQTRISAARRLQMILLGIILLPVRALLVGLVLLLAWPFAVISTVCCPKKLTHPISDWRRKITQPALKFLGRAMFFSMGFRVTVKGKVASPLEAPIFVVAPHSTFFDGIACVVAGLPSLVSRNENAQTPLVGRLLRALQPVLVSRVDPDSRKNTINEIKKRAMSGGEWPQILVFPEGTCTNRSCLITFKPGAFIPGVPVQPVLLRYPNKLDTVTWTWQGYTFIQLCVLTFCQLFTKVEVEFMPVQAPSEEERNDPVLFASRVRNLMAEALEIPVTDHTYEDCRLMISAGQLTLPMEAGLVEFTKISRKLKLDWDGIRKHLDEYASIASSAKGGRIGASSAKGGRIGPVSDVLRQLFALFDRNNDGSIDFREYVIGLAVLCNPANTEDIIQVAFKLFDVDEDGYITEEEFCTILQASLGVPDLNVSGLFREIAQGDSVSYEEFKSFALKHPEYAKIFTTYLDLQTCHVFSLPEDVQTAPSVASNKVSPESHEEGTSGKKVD
# Experimental: (§1) Compounds of the invention were assayed for inhibiting activity in arachidonate metabolism and PAF synthesis as follows.
# B) Lyso-PAF: Acetyl-CoA Acetyltransferase [Synthesis of Platelet-ActivatingFactor (PAF)]
# Synthesis of PAF (platelet-activating factor) was measured in a lysate of rat pleural neutrophils, as described by White and Faison, Prostaglandins,1988; 35: p939-44. Pleural exudate cells, harvested from male Harlan Sprague-Dawley rats (150±20 g) 3 hr after injection of 0.5 mg carrageenan, were centrifuged at 200 g for 10 min at 4° C., washed, and resuspended at approximately 17 million cells/mi in a buffer consisting of 50 mM potassium phosphate, 144 mM NaCl, 6 mM KCl, 5 mM glucose, 1 mM MgCl2, 1.3 mM CaCl2, pH 7.4. Resuspended cells were incubated with calcium ionophore A23187 (1 μM) for 5 min at 37° C. to activate the acetyltransferase and then centrifuged at 755 g for 2 min at 4° C. Pellets were resuspended in cold distilled water and sonicated in a 50 Hz ultrasonic bath. Portions (250 μl) of the resulting lysate were mixed with buffer, test compound, and substrates to give 36 mM Tris-Cl, pH 6.9, 12 μM lyso-PAF, and 2.3 μM [^14 C]acetyl-CoA (0.06 μCi) in a total volume of 500 μl. Blank assays contained nonactivated neutrophils and no added lyso-PAF. The compound being tested was added prior to substrates. After incubation at 37° C. for 10 min. 0.68 ml of 2N HCl and 2.53 ml of 1:1 chloroform/methanol were added to each tube to extract labeled PAF. Each tightly-covered tube was briefly sonicated in a Branson 50 Hz bath, vortexed for 20 sec, and centrifuged at 160 g for 5 min to separate solvent phases. A 0.90 ml aliquot of the lower (organic)phase was pipetted into a glass scintillation vial, dried under nitrogen using an N-EVAP apparatus (Organomation Associates), and counted using scintillation techniques.
# [2] = biological target: T2, arachidonate 5-lipoxygenase (Rattus norvegicus, UniProt P12527); assay: Arachidonate metabolism: 5-lipoxygenase inhibition in rat pleural exudate cells; assay type: cell-based, rat (Harlan Sprague-Dawley male); settings: ionophore A23187, 10 μM arachidonate, 37° C., read-out: Enzymes IC50 5-LO
# T2 construct: endogenous in cells; host or cells: pleural exudate cells of male Harlan Sprague-Dawley rats, 3 hr after intrapleural carrageenan
# T2 sequence (P12527 1-673): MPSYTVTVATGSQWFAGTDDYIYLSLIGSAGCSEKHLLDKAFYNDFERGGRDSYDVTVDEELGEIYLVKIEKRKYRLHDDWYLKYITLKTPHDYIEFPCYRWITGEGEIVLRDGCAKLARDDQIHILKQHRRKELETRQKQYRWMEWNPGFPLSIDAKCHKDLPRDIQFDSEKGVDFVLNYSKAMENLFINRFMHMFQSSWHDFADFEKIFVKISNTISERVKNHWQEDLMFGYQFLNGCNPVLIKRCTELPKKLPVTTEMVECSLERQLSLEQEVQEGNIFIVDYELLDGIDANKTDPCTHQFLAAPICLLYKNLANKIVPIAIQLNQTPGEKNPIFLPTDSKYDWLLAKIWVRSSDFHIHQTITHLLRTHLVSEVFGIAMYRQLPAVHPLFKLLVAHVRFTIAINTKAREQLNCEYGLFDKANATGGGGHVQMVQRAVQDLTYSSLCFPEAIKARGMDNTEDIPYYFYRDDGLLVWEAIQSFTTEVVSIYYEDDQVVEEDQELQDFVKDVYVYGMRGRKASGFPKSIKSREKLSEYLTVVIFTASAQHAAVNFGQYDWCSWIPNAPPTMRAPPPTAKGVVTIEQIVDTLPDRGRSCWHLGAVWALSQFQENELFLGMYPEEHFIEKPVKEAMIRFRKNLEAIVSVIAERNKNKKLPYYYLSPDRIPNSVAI
# Experimental: as §1
# (§2) A) Arachidonate Metabolism
# (§3) Arachidonate cyclooxygenase, 5-lipoxygenase, and thromboxane synthetase were assayed as described in White et al, Prostaglandins, Leukotrienes and Medicine, 1985; 20: p 1-9. Pleural exudate cells were harvested from Harlan Sprague-Dawley male rats (150±20 g) 3 hr after intrapleural injection of 0.5 mg carrageenan. Cell counts were obtained from pooled exudates, which were then centrifuged at 200 g (10 min, 4° C.) and resuspended at 15 million cells/ml in 0.13M NaCl, 15 mM Tris-Cl, 5 mM glucose, pH 7.4. Portions of this cell suspension (3 million cells per assay) were preincubated with and without compound being tested for 5 min at 37° C. in 50 mM Tris-Cl, 1 mM CaCl2, pH 7.4. Ionophore A23187 (3 μM) and [^14 C]arachidonate (to give 10 μM; 55 Ci/mol) were then added in a total assay volume of 400 μl, and incubation was continued for 2 min at 37° C. Blank assays were performed using sonicated cells with 0.1 mM 3-amino-1-m-trifluoromethylphenyl pyrazol-2-ine, an inhibitor of cyclooxygenase and lipoxygenase pathways. After incubation, reaction mixtures were acidified with 20 μl of 2N HCl and extracted with 4 ml diethyl ether. Ether extracts were dried under nitrogen, resuspended in ethyl acetate, and chromatographed on Whatman LK5D silica gel G plates, using ethyl acetate/isooctane/acetic acid/water (9/5/2/10; vols; top layer after 5 min shaking). Thin layer plates were exposed to Kodak SB-5 X-ray film to produce autoradiogran. [^14 C]DPM in products were obtained by scraping appropriate regions of TLC plates and counting in a scintillation spectrometer. Effects on the 5-lipoxygenase pathway were estimated by counting 5-HETE and 5,12-diHETE (LTB4). Cyclooxygenase and thromboxane synthetase inhibition were estimated by counting thromboxane B2 and prostaglandin E2 or F2 α. Selective thromboxane inhibitors will decrease thromboxane B2 and increase PGE2 and PGF2 α. Cyclooxygenase inhibitors will inhibit the formation of all three products.
# [3] = tested on: antigen-induced airway eosinophilia; assay: Inhibition of antigen-induced airway eosinophilia in the guinea pig; assay type: in vivo, guinea pig (male Hartley); settings: 24 h after antigen challenge
# Experimental: 2) Compounds of the invention were assayed for inhibition of Antigen-Induced airway eosinophilia as follows:
# Male Hartley guinea pigs [Crl:(HA)Br, Charles River] weighing 200-300 g were sensitized to ovalbumin (OA) by intraperitioneal (i.p.) injections (in 1 ml 0.9% saline) of 20 mg followed by 1 mg 2 or 3 days later. After four to twelve weeks, the animals were treated with the antihistamine, pyrilamine (1 mg/kg i.p), 1 hour prior to exposure (17.8 l chamber) and for 10 min to an aerosol of OA (0.5% w/v solution in 0.9% sterile saline) generated from a jet nebulizer (Devilbiss Model 40; flow rate=8.51/min). […] Twenty-four hours after antigen challenge, each animal was anesthetized with sodium pentobarbital (55-75 mg/kg i.p.), the trachea cannulated and the lungs lavaged with 4×10 ml aliquots of Hanks' Balanced Salt Solution warmed to 37° C. The aliquots were pooled in 40 ml polycarbonate centrifuge tubes, centrifuged (200 g for 10 min at 4° C.) and the cell pellet resuspended in HEPES buffered solution (2 ml). Fifty μl of the suspension were added to 10 ml of Isoton Diluent (Fisher Scientific) containing three drops of lysing agent and the cells counted with a Coulter Counter (Model ZB1). Four μl of the cell suspension were spread on a 3×1 inch glass microscope slide, allowed to dry and the cells stained with DIFF-QUIK™ (Fisher Scientific). Two slides were prepared for each animal. Differential cell counts were made (100× magnification) from a minimum of four fields on 100 cells per slide (total cells counted per animal=200), using standard morphological criteria to classic cells into eosinophils, neutrophils, lymphocytes and macrophages. The activity of the test compound was calculated by comparing the mean proportions of eosinophils in the lavage fluid of compound-treated animals with controls (vehicle-treated animals) and expressing as percent inhibition.
# [4] = tested on: arachidonate cyclooxygenase; assay: Arachidonate metabolism: cyclooxygenase inhibition in rat pleural exudate cells; assay type: cell-based, rat (Harlan Sprague-Dawley male); settings: ionophore A23187, 10 μM arachidonate, 37° C., read-out: Enzymes IC50 CO
# Experimental: as §1, §2, §3
# [5] = tested on: C. parvum/LPS septic shock in mice; assay: In vivo Septic Shock model C. parvum/LPS Shock; set-up: species or system mouse (male CD-1); settings: for % Survival After 48 hr / Alive/Total at 3 hr / Alive/Total at 48 hr: schedule -2,0 hr
# Experimental: 3) In vivo Septic Shock model C. parvum/LPS Shock
# Male CD-1 mice, 25-30 g (Charles River: Raleigh, N.C.), are injected intravenously (i.v.) with 100 μg killed C. parvum (Coparvax; Burroughs Wellcome, RTP, NC). Nine or ten days later the mice are injected i.v. with 20 μg E. coli 026:B6 lipopolysaccharide (LPS; Difco Labs, Detroit, Mich.) in the presence of the analgesic butorphanol (150 μg per mouse). (E)-4-(1,3-bis(cyclohexylmethyl)-1, 2, 3, 6-tetrahydro-2, 6dioxo-9H-purin-8-yl)cinnamic acid was dissolved in ENCAPSIN (hydroxypropyl-β-cyclodextrin) for i.v. dosing before, at the same time as, and after the endotoxin. Control (untreated) animals go into shock within the first 90 min following LPS administration, and approximately 50% die within 3-5 hr. Mice are monitored for the first 7 hr and at 24 and 48 hr for survival.
# (E)-4-(1,3-bis(cyclohexylmethyl)-1, 2, 3, 6-tetrahydro-2, 6-dioxo-9H-purin-8-yl) cinnamic acid was administered at 0.001 to 80 mg/kg i.v. in the Septic Shock model described above.
compound,measurement,setting,value
"O=C(O)/C=C/c1ccc(-c2nc3c(=O)n(CC4CCCCC4)c(=O)n(CC4CCCCC4)c3[nH]2)cc1 [Example 1, (E)-4-[1,3 Bis(cyclohexylmethyl)-1,2,3,6-tetrahydro-2,6-dioxo-9H-purin-8-yl]cinnamic Acid]",IC50,[1],2.5 µM
same,IC50,[2],0.3 µM
same,Inhibition of Airway Eosinophilia (% inhibition),[3]; dose 5 mg/kg ip,50%
same,IC50,[4],0.1 µM
same,% Survival After 48 hr,[5]; 0.001 mg/kg i.v.,13%
same,Alive/Total at 3 hr,[5]; 0.001 mg/kg i.v.,6/8
same,Alive/Total at 48 hr,[5]; 0.001 mg/kg i.v.,1/8
same,% Survival After 48 hr,[5]; 0.01 mg/kg i.v.,13%
same,Alive/Total at 3 hr,[5]; 0.01 mg/kg i.v.,7/8
same,Alive/Total at 48 hr,[5]; 0.01 mg/kg i.v.,1/8
same,% Survival After 48 hr,[5]; 0.1 mg/kg i.v.,50%
same,Alive/Total at 3 hr,[5]; 0.1 mg/kg i.v.,6/8
same,Alive/Total at 48 hr,[5]; 0.1 mg/kg i.v.,4/8
same,% Survival After 48 hr,[5]; 1.0 mg/kg i.v.,88%
same,Alive/Total at 3 hr,[5]; 1.0 mg/kg i.v.,6/8
same,Alive/Total at 48 hr,[5]; 1.0 mg/kg i.v.,7/8
same,protection (decreasing mortality),"[5]; 0.001 to 80 mg/kg i.v., administered 2 hr before and at the time of LPS",greater than 50%
same,% Survival After 48 hr,[5]; 5.0 mg/kg i.v.,75%
same,Alive/Total at 3 hr,[5]; 5.0 mg/kg i.v.,7/8
same,Alive/Total at 48 hr,[5]; 5.0 mg/kg i.v.,6/8
same,% Survival After 48 hr,[5]; 10 mg/kg i.v.,75%
same,Alive/Total at 3 hr,[5]; 10 mg/kg i.v.,8/8
same,Alive/Total at 48 hr,[5]; 10 mg/kg i.v.,6/8
same,% Survival After 48 hr,[5]; 20 mg/kg i.v.,75%
same,Alive/Total at 3 hr,[5]; 20 mg/kg i.v.,8/8
same,Alive/Total at 48 hr,[5]; 20 mg/kg i.v.,6/8
same,% Survival After 48 hr,[5]; 40 mg/kg i.v.,75%
same,Alive/Total at 3 hr,[5]; 40 mg/kg i.v.,7/8
same,Alive/Total at 48 hr,[5]; 40 mg/kg i.v.,6/8
same,% Survival After 48 hr,[5]; 60 mg/kg i.v.,75%
same,Alive/Total at 3 hr,[5]; 60 mg/kg i.v.,7/8
same,Alive/Total at 48 hr,[5]; 60 mg/kg i.v.,6/8
same,% Survival After 48 hr,[5]; 80 mg/kg i.v.,63%
same,Alive/Total at 3 hr,[5]; 80 mg/kg i.v.,7/8
same,Alive/Total at 48 hr,[5]; 80 mg/kg i.v.,5/8
"O=C(O)/C=C/c1ccc(-c2nc3c(=O)n(CC4CCCC4)c(=O)n(CC4CCCC4)c3[nH]2)cc1 [Example 4, (E)-4-[1,3 Bis(cyclopentylmethyl)-1,2,3,6-tetrahydro-2,6-dioxo-9H-purin-8-yl]cinnamicAcid]",IC50,[1],15 µM
same,IC50,[2],6 µM
same,Inhibition of Airway Eosinophilia (% inhibition),[3]; dose 10 mg/kg ip,46%
same,IC50,[4],5 µM
"O=C(O)/C=C/c1ccc(-c2nc3c(=O)n(CC4CCCCCC4)c(=O)n(CC4CCCCCC4)c3[nH]2)cc1 [Example 7, (E)-4-[1,3 Bis(cycloheptylmethyl)-1,2,3,6-tetrahydro-2,6-dioxo-9H-purin-8-yl]cinnamicAcid]",IC50,[1],12 µM
same,IC50,[2],1.5 µM
same,Inhibition of Airway Eosinophilia (% inhibition),[3]; dose 6.8 mg/kg ip,50%
same,IC50,[4],4 µM

# Reference: patent US5776940A, “Phenylxanthine derivatives” (Glaxo Wellcome Inc., priority 1994, dated 1998)
